In PMC8317666, “Combining flavin photocatalysis with parallel synthesis: a general platform to optimize peptides with non-proteinogenic amino acids” (Chemical Science, 2021):

Molecular target: Thrombin (Homo sapiens, UniProt P00734)
Assay: Thrombin inhibition assay (Sigma Thrombin Inhibitor Screening Kit MAK243)
[1] = 80 μM peptide (screening grade, mixture of diastereomers), 15 min preincubation with thrombin at room temperature, AMC-based peptide substrate, 37 °C, 30 min incubation, fluorescence Ex/Em 350/450 nm, 384-well, replicate 1 of 2
[2] = 80 μM peptide (screening grade, mixture of diastereomers), 15 min preincubation, AMC substrate, 37 °C, 30 min, fluorescence, average of two independent experiments

Row | Percent thrombin inhibition, 1st run [1] [%] | Percent thrombin inhibition, Average [2] [%] | Percent thrombin inhibition, 2nd run (80 μM peptide (screening grade, mixture of diastereomers), 15 min preincubation, AMC substrate, 37 °C, 30 min, fluorescence, replicate 2 of 2) [%] | Percent thrombin inhibition, Average (80 μM, parent peptide and HPLC-separated diastereomers of 3C' (>95% purity), 30 min incubation, average of three independent experiments) [%] | Percent thrombin inhibition, 1st run (80 μM, parent peptide and HPLC-separated diastereomers of 3C' (>95% purity), 30 min incubation, replicate 1 of 3) [%] | Percent thrombin inhibition, 2nd run (80 μM, parent peptide and HPLC-separated diastereomers of 3C' (>95% purity), 30 min incubation, replicate 2 of 3) [%] | Percent thrombin inhibition, 3rd run (80 μM, parent peptide and HPLC-separated diastereomers of 3C' (>95% purity), 30 min incubation, replicate 3 of 3) [%] | Percent thrombin inhibition, Average (80 μM peptide (screening grade, mixture of diastereomers), 15 min preincubation, AMC substrate, 37 °C, 30 min, fluorescence, average of two independent experiments, listed as 3C′) [%] | Substance
1 | -2.1 | -2.5 | -2.9 |  |  |  |  |  | Ac-G-P-[5-Qin]-F-NH2 [4B']
2 |  |  |  | 7.1 | 9.4 | 5.5 | 6.5 |  | Ac-Gly-Pro-Phe-Phe-NH2 [Ac-G-P-F-F-NH2]
3 | 96.7 | 96.9 |  |  |  |  |  | 97 | Ac-Gly-Pro-[N(Me)-2-Ind]-Phe-NH2 [3C']
